Results reported in ChEMBL document CHEMBL1142102, “Cytotoxic germacrane-type sesquiterpenes, pimarane-type diterpenes, and a naphthalene derivative from Wollastonia biflora” (J Nat Prod, 2007).

Assay: Cytotoxicity against human BEL-7402 cells after 72 hrs by SRB assay
Type: cell-based
Settings: Bel-7402, 72 h

| Compound | IC50 |
| --- | --- |
| C=C(C)C(=O)O[C@@H]1C[C@H](CO)CC/C=C(/C=O)C[C@H]2OC(=O)C(=C)[C@H]12 | 1500 nM |
| C=C1C(=O)O[C@@H]2C/C(CO)=C\CC[C@@H](CO)C[C@@H](OC(=O)/C(C)=C\C)[C@@H]12 | 3000 nM |
| C=C(C)C(=O)O[C@@H]1C[C@H](CO)CC/C=C(/CO)C[C@H]2OC(=O)C(=C)[C@H]12 | 1720 nM |
